According to US20250152527A1 (priority 2023, published 2025):

Columns and labels:
[1] = system: patients with clinically stable coronary disease; settings: Nidorf et al., JACC 2013; 0.5 mg/day in addition to statins and other standard therapies; cited from earlier work
[2] = system: patients with clinically stable coronary disease; assay: LoDoCo Trial: colchicine 0.5 mg/day added to standard secondary prevention therapies; type: in vivo, human
Experimental: This study is described in PCT/AU2013/001261 and is hereby incorporated in its entirety by reference.
All outcomes were evaluated by an experienced adjudicator blinded to the treatment allocation.
Patients with a history of bypass surgery were only eligible if they had undergone bypass surgery more than 10 years before, or had angiographic evidence of graft failure or had undergone stenting since their bypass surgery. All patients signed informed consent before randomization.
Patients who were intolerant to therapy remained in the study, and were followed in the usual manner and included in the primary intention to treat analysis.
The drug was dispensed by their usual chemist, and if requested, patients were reimbursed for the cost of these scripts. All other treatments were continued as usual.
An acute coronary syndrome (ACS) was defined as either (a) Acute Myocardial Infarction (AMI), as evidenced by acute ischemic chest pain associated with a rise in serum troponin above the upper limit of normal or (b) Unstable Angina (UA), as evidenced by a recent acceleration of the patient's angina unassociated with a rise in serum troponin but associated with angiographic evidence of a change in the patient's coronary anatomy. (Unstable Angina Braunwald classification types IB and IIB). The ACS was characterized as being stent-related if there was evidence of significant in-stent stenosis or acute stent thrombosis. Out of Hospital Cardiac Arrest was defined as either a sudden death as evidenced on the patient's death certificate, or a non-fatal out of hospital cardiac arrest, defined as a recovery from sudden collapse associated with documented asystole, ventricular tachycardia or ventricular fibrillation.
The primary efficacy outcome was the composite, ACS, fatal or non-fatal out of hospital cardiac arrest or non-cardio-embolic ischemic stroke. […]
All time to event outcomes were calculated in days by subtracting the date of randomization from either: (1) the date of event or death; or (2) the trial termination date for those patients not experiencing the defined event. […]

Question: Which “prevention of cardiovascular events” value [1] does the source give for `COc1cc2c(c(OC)c1OC)-c1ccc(OC)c(=O)cc1[C@@H](NC(C)=O)CC2` [colchicine, (−)-N-[(7S, 12aS)-1,2,3,10-tetramethoxy-9-oxo-5,6,7,9-tetrahydrobenzo[a]heptalen-7-yl]-acetamide] here?
Answer: appeared effective for the prevention of cardiovascular events

Question: And the “patients with ACS unrelated to stent disease associated with an AMI” value ([2]; 4/282 patients)?
Answer: 1.4%

Question: And the “patients with ACS unrelated to stent disease associated with UA” value ([2]; 5/282 patients)?
Answer: 1.8%

Question: And the “patients with a primary outcome (ACS, out of hospital cardiac arrest or non-cardio-embolic ischemic stroke)” value ([2]; intention to treat, 15/282 patients, colchicine 0.5 mg/day, median follow up 36 months)?
Answer: 5.3%
